Experimental data: patent US20210395651A1, “COMPOUNDS STABILIZING HYDROLASES IN LIQUIDS” (BASF SE, priority 2018, published 2021)

The compounds below were run against T1, Lipolase® 100L (Thermomyces lanuginosus, UniProt O59952) (assay: Lipase storage stability in liquid formulations at 37° C. (pNP-valerate activity)). Conditions: base formulation I. (Lipolase 0.2 wt%, tested compound 2.5 wt%); 3 d storage at 37° C.
T1 construct: purchased Sigma-Aldrich
T1 sequence (O59952 23-291): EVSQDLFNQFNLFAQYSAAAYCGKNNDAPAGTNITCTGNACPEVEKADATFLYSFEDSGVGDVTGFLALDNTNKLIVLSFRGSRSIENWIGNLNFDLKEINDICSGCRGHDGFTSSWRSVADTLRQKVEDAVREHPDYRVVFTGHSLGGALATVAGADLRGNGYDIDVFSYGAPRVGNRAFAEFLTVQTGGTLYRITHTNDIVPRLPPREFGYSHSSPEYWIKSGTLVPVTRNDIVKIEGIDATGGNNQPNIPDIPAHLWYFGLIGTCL
Assay type: biochemical, Thermomyces lanuginosa
Description: The storage stability of Lipase was assessed at 37° C.
Base test formulations were manufactured by making base formulations I to V by mixing the components according to Table 1.
The respective component (a) or comparative compound was added, if applicable, to the respective base formulation in amounts as indicated in Table 1.
Lipase used: Lipolase® 100L (CAS-No. 9001-62-1, EC-No. 232-619-9) was purchased from Sigma-Aldrich.
The amount of lipase as provided in Table 1 refers to active protein.
Water was added to accomplish the balance to 100.
Lipolase activity at certain points in time as indicated in Table 2 was be determined by employing pNitrophenol-valerate (2.4 mM pNP-C5 in 100 mM Tris pH 8.0, 0.01% Triton X100) as a substrate. The absorption at 405 nm was measured at 20° C. every 30 seconds over 5 minutes.
The slope (absorbance increase at 405 nm per minute) of the time dependent absorption-curve is directly proportional to the activity of the lipase.
The […] activity values provided in Table 2 were calculated referring to the 100% value determined in the reference formulation at the time 0.
The nomenclature of formulations is as follows: the Roman number before the full stop characterizes the base formulation, the Arabian number the type of compound (A.# compound according to invention (component (a)); (B.#) comparative compound).

SMILES	lipase activity, 3 d
CCCCOC(=O)CC(CC(=O)OCCCC)(OC(C)=O)C(=O)OCCCC [A.4, Acetyltributylcitrate]	104%

Same assay, conditions: base formulation I. (Lipolase 0.2 wt%, tested compound 2.5 wt%); 7 d storage at 37° C.

SMILES	lipase activity, 7 d
CCCCOC(=O)CC(CC(=O)OCCCC)(OC(C)=O)C(=O)OCCCC [A.4, Acetyltributylcitrate]	99%

Same assay, conditions: base formulation I. (Lipolase 0.2 wt%, tested compound 2.5 wt%); 14 d storage at 37° C.

SMILES	lipase activity, 14 d
CCCCOC(=O)CC(CC(=O)OCCCC)(OC(C)=O)C(=O)OCCCC [A.4, Acetyltributylcitrate]	93%

Same assay, conditions: base formulation I. (Lipolase 0.2 wt%, tested compound 2.5 wt%); 21 d storage at 37° C.

SMILES	lipase activity, 21 d
CCCCOC(=O)CC(CC(=O)OCCCC)(OC(C)=O)C(=O)OCCCC [A.4, Acetyltributylcitrate]	88%

Same assay, conditions: base formulation I. (Lipolase 0.2 wt%, tested compound 2.5 wt%); 28 d storage at 37° C.

SMILES	lipase activity, 28 d
CCCCOC(=O)CC(CC(=O)OCCCC)(OC(C)=O)C(=O)OCCCC [A.4, Acetyltributylcitrate]	83%

Same assay, conditions: base formulation I. (Lipolase 0.2 wt%, tested compound 2.5 wt%); 35 d storage at 37° C.

SMILES	lipase activity, 35 d
CCCCOC(=O)CC(CC(=O)OCCCC)(OC(C)=O)C(=O)OCCCC [A.4, Acetyltributylcitrate]	78%

Same assay, conditions: base formulation I. (Lipolase 0.2 wt%, tested compound 2.5 wt%); T0; relative to 100% value of reference formulation at time 0

SMILES	lipase activity, T0
CCCCOC(=O)CC(CC(=O)OCCCC)(OC(C)=O)C(=O)OCCCC [A.4, Acetyltributylcitrate]	102%

Same assay, conditions: base formulation IV. (Lipolase 0.2 wt%, tested compound 2.0 wt%); 3 d storage at 37° C.

SMILES	lipase activity, 3 d
CCCCOC(=O)CC(CC(=O)OCCCC)(OC(C)=O)C(=O)OCCCC [A.4, Acetyltributylcitrate]	97%

Same assay, conditions: base formulation IV. (Lipolase 0.2 wt%, tested compound 2.0 wt%); 7 d storage at 37° C.

SMILES	lipase activity, 7 d
CCCCOC(=O)CC(CC(=O)OCCCC)(OC(C)=O)C(=O)OCCCC [A.4, Acetyltributylcitrate]	95%

Same assay, conditions: base formulation IV. (Lipolase 0.2 wt%, tested compound 2.0 wt%); 14 d storage at 37° C.

SMILES	lipase activity, 14 d
CCCCOC(=O)CC(CC(=O)OCCCC)(OC(C)=O)C(=O)OCCCC [A.4, Acetyltributylcitrate]	93%

Same assay, conditions: base formulation IV. (Lipolase 0.2 wt%, tested compound 2.0 wt%); 21 d storage at 37° C.

SMILES	lipase activity, 21 d
CCCCOC(=O)CC(CC(=O)OCCCC)(OC(C)=O)C(=O)OCCCC [A.4, Acetyltributylcitrate]	89%

Same assay, conditions: base formulation IV. (Lipolase 0.2 wt%, tested compound 2.0 wt%); 28 d storage at 37° C.

SMILES	lipase activity, 28 d
CCCCOC(=O)CC(CC(=O)OCCCC)(OC(C)=O)C(=O)OCCCC [A.4, Acetyltributylcitrate]	86%

Same assay, conditions: base formulation IV. (Lipolase 0.2 wt%, tested compound 2.0 wt%); 35 d storage at 37° C.

SMILES	lipase activity, 35 d
CCCCOC(=O)CC(CC(=O)OCCCC)(OC(C)=O)C(=O)OCCCC [A.4, Acetyltributylcitrate]	83%

Same assay, conditions: base formulation IV. (Lipolase 0.2 wt%, tested compound 2.0 wt%); T0; relative to 100% value of reference formulation at time 0

SMILES	lipase activity, T0
CCCCOC(=O)CC(CC(=O)OCCCC)(OC(C)=O)C(=O)OCCCC [A.4, Acetyltributylcitrate]	101%

Same assay, conditions: base formulation V. (Lipolase 0.2 wt%, tested compound 2.0 wt%); 3 d storage at 37° C.

SMILES	lipase activity, 3 d
CCCCOC(=O)CC(CC(=O)OCCCC)(OC(C)=O)C(=O)OCCCC [A.4, Acetyltributylcitrate]	100%

Same assay, conditions: base formulation V. (Lipolase 0.2 wt%, tested compound 2.0 wt%); 7 d storage at 37° C.

SMILES	lipase activity, 7 d
CCCCOC(=O)CC(CC(=O)OCCCC)(OC(C)=O)C(=O)OCCCC [A.4, Acetyltributylcitrate]	94%

Same assay, conditions: base formulation V. (Lipolase 0.2 wt%, tested compound 2.0 wt%); 14 d storage at 37° C.

SMILES	lipase activity, 14 d
CCCCOC(=O)CC(CC(=O)OCCCC)(OC(C)=O)C(=O)OCCCC [A.4, Acetyltributylcitrate]	90%

Same assay, conditions: base formulation V. (Lipolase 0.2 wt%, tested compound 2.0 wt%); 21 d storage at 37° C.

SMILES	lipase activity, 21 d
CCCCOC(=O)CC(CC(=O)OCCCC)(OC(C)=O)C(=O)OCCCC [A.4, Acetyltributylcitrate]	85%

Same assay, conditions: base formulation V. (Lipolase 0.2 wt%, tested compound 2.0 wt%); 28 d storage at 37° C.

SMILES	lipase activity, 28 d
CCCCOC(=O)CC(CC(=O)OCCCC)(OC(C)=O)C(=O)OCCCC [A.4, Acetyltributylcitrate]	80%

Same assay, conditions: base formulation V. (Lipolase 0.2 wt%, tested compound 2.0 wt%); 35 d storage at 37° C.

SMILES	lipase activity, 35 d
CCCCOC(=O)CC(CC(=O)OCCCC)(OC(C)=O)C(=O)OCCCC [A.4, Acetyltributylcitrate]	74%

Same assay, conditions: base formulation V. (Lipolase 0.2 wt%, tested compound 2.0 wt%); T0; relative to 100% value of reference formulation at time 0

SMILES	lipase activity, T0
CCCCOC(=O)CC(CC(=O)OCCCC)(OC(C)=O)C(=O)OCCCC [A.4, Acetyltributylcitrate]	101%
